Values of other authors as cited in patent US20100249031A1, “Nutritional Composition Comprising Curcuminoids and Methods of Manufacture” (priority 2009, published 2010).

Key:
[1] = percentage of ingested curcuminoid metabolized by the body
Microtubule Assembly = details: @ 40 μM

Row | Compound | Metabolic Recovery [1] | Inhibition of Microtubule Assembly (Microtubule Assembly)
1 | COc1cc(/C=C/C(O)=C/C(=O)/C=C/c2ccc(O)cc2)ccc1O [DMC, demethoxycurcumin] | ~50% | 
2 | COc1cc(/C=C/C(=O)CC(=O)/C=C/c2ccc(O)c(OC)c2)ccc1O [Curcumin, curcumin] |  | 50% @
3 | O=C(/C=C/c1ccc(O)cc1)CC(=O)/C=C/c1ccc(O)cc1 [BDMC, bisdemethoxycurcumin] | ~75% | 
